Measured values taken from PubChem BioAssay (NCI).
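Each compound was tested at five concentrations against cells in 96-well plates for 48 hours. TGI denotes the concentration required for complete inhibition of growth.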

Tests used:
Experiment in all cases: NCI-60 cell line screen, 48 h
A549 NSCLC = system: A549 NSCLC
IGROV1 ovarian = system: IGROV1 ovarian
SNB-78 CNS = system: SNB-78 CNS
DMS 273 small cell lung = system: DMS 273 small cell lung
HCT-116 colon = system: HCT-116 colon
NCI-H460 lung = system: NCI-H460 lung
HL-60(TB) leukemia = system: HL-60(TB) leukemia
KM20L2 colon = system: KM20L2 colon
OVCAR-3 ovarian = system: OVCAR-3 ovarian
M19-MEL melanoma = system: M19-MEL melanoma
MCF7 breast = system: MCF7 breast

SMILES | TGI (A549 NSCLC) [µM] | TGI (IGROV1 ovarian) [µM] | TGI (SNB-78 CNS) [µM] | TGI (DMS 273 small cell lung) [µM] | TGI (HCT-116 colon) [µM] | TGI (NCI-H460 lung) [µM] | TGI (HL-60(TB) leukemia) [µM] | TGI (KM20L2 colon) [µM] | TGI (OVCAR-3 ovarian) [µM] | TGI (M19-MEL melanoma) [µM] | TGI (MCF7 breast) [µM]
CCCCCCCC(=O)OCC1OC(n2cc(F)c(=O)[nH]c2=O)C(NC(=O)OCc2ccccc2)C(OC(=O)CCCCCCC)C1O (stereo unspecified) | > 100 | > 100 | > 100 | 54.7 | > 100 | > 100 | 40.8 | > 100 | 47.7 | 54.6 | –
O=C(c1cc2c(C(F)(F)F)onc2c2ccccc12)C(F)(F)F | > 72.1 | > 100 | 3.82 | 16.1 | 1.03 | 7.17 | 6.86 | 25.1 | 13.8 | 23.4 | –
CC(=O)O[C@H]1CCC2[C@@H]3CCC4Nc5c(cnn5-c5ccccc5)C[C@]4(C)C3CC[C@@]21C (stereo partly specified) | 68.7 | > 100 | 63.4 | 14.4 | 27.5 | 42.1 | 32.9 | 37.1 | 46.2 | 24.4 | –
CCC(O)(c1ccc(OC)cc1)C(c1ccc(OCc2ccccc2)cc1)c1ccc(OCc2ccccc2)cc1 (stereo unspecified) | > 100 | > 100 | > 100 | > 100 | > 100 | > 100 | > 100 | > 100 | > 100 | > 100 | –
O=C(COc1ccc(Cl)cc1)N1N=C(c2ccc([N+](=O)[O-])o2)CC1(O)c1ccccc1 (stereo unspecified) | 28.8 | 42 | 37.6 | 18.6 | 17.9 | 23.1 | 12 | 30.4 | 17.2 | 10.1 | –
NC1=NC(c2ccccc2)CC(c2cc(Cl)cc(Br)c2O)=N1 (stereo unspecified) | 34.6 | 30.8 | 47.7 | 23.2 | 25.8 | 19.9 | 13.2 | 30.8 | 30.2 | 28.2 | 21.4
Cc1[nH]c2ccccc2c1C1CC(=O)NC1=O (stereo unspecified) | > 100 | > 100 | > 100 | > 100 | > 100 | > 100 | > 100 | > 100 | > 100 | > 100 | –
CCN(CC)CCOC(=O)/C(=C/c1ccc(OC)cc1)c1cc(OC)c(OC)c(OC)c1 | > 100 | > 100 | > 100 | 23.4 | > 100 | 51.2 | 16.4 | 24.6 | 64.3 | > 100 | –
CC(C)c1cccc(C(C)C)c1N=C(N)C#N | > 61.1 | > 100 | > 100 | > 56.9 | > 58.6 | > 62.5 | > 65.3 | > 100 | > 100 | > 100 | –
CCN(CC)C(=O)CNC(=O)OC(C)(C)C | > 100 | > 100 | > 100 | > 100 | > 100 | > 100 | > 100 | > 100 | > 100 | > 100 | –
